Earlier results, collected in publication PMC8748714, “Dynamics of GLP-1R peptide agonist engagement are correlated with kinetics of G protein activation” (Nature Communications, 2022).

Key:
[1] = test system: GLP-1R
Excerpt: Despite this conservation, these peptides induce distinct signalling profiles and have different mechanisms for receptor interaction. […] While there was also conservation in the TM bundle interactions when engaged by the four peptides, differences were identified in how each peptide uses different networks to facilitate G protein coupling. This transmission of information across the TM bundle also enables G ...

[2] = test system: GLP-1R; details: vs full-length exendin-4

exendin(9–39): N-terminally truncated exendin-4 lacking the first 8 amino acids
lower affinity than corresponding full-length peptide ([1]; exendin(9–39) vs exendin-4, GLP-1(15–36) vs GLP-1): 10–30 fold

GLP-1 (Ala2Gly): GLP-1 with Ala2Gly substitution
effect of residue 2 substitution on affinity ([1]; ref 31-33 (chimera ref 32)): reduced affinity

truncation of the first two residues of exendin-4: exendin-4 truncated by the first two residues
affinity on truncation of first two residues ([1]; vs full-length exendin-4): does not significantly alter its affinity | decrease in potency for cAMP signalling on truncation of first two residues [2]: ~ 200 fold
